Test results taken from ChEMBL document CHEMBL1201862, “PubChem BioAssay data set” (2004).
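48-hour exposure; five concentrations; linearly interpolated endpoints. Here, GI50 denotes the concentration required for 50% inhibition of growth.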 Active and inactive are the calls of the source. Rule as the data show it: active = GI50 up to about 1.1 µM and inactive = higher.

Legend:
Experiment in all cases: NCI-60 cell line screen, 48 h
[1] = test system: OVCAR-8
[2] = test system: OVCAR-4
[3] = test system: K562
[4] = test system: RXF 393
[5] = test system: DU-145
[6] = test system: U-251
[7] = test system: SW-620
[8] = test system: HT-29
[9] = test system: SN12C
[10] = test system: UO-31
[11] = test system: CAKI-1
[12] = test system: PC-3
[13] = test system: HCC 2998
[14] = test system: HOP-92
[15] = test system: NCI/ADR-RES
[16] = test system: SF-295
[17] = test system: EKVX
[18] = test system: SNB-75
[19] = test system: RPMI-8226
[20] = test system: SR

Compound	GI50 [1]	GI50 [2]	GI50 [3]	GI50 [4]	GI50 [5]	GI50 [6]	GI50 [7]	GI50 [8]	GI50 [9]	GI50 [10]	GI50 [11]	GI50 [12]	GI50 [13]	GI50 [14]	GI50 [15]	GI50 [16]	GI50 [17]	GI50 [18]	GI50 [19]	GI50 [20]
Cc1ccc(S(=O)(=O)N/N=C2\CC3C4C=CC3C2C4)cc1 (stereo not drawn)	> 100 µM (inactive)	> 100 µM (inactive)	> 100 µM (inactive)	> 100 µM (inactive)	> 100 µM (inactive)	> 100 µM (inactive)	> 100 µM (inactive)	> 100 µM (inactive)	> 100 µM (inactive)	21 µM (inactive)	> 100 µM (inactive)	> 100 µM (inactive)	> 100 µM (inactive)	> 100 µM (inactive)	> 100 µM (inactive)	> 100 µM (inactive)	> 100 µM (inactive)			
CC1=CC(C)(C)Nc2ccc(CSc3ccccc3)cc21	46.2 µM (inactive)	21.1 µM (inactive)	18 µM (inactive)	16.3 µM (inactive)	22.8 µM (inactive)	31.8 µM (inactive)	23 µM (inactive)	16.1 µM (inactive)	19.1 µM (inactive)	22.1 µM (inactive)	36.1 µM (inactive)	28.9 µM (inactive)	17.2 µM (inactive)	34.8 µM (inactive)	41.9 µM (inactive)	20 µM (inactive)	22.1 µM (inactive)	24.7 µM (inactive)	14.9 µM (inactive)	
COc1ccc2c(c1)N=C1CSC(c3ccccc3Cl)N1C2 (stereo not drawn)	16.1 µM (inactive)	14.1 µM (inactive)	7.82 µM (inactive)	11.3 µM (inactive)		10.8 µM (inactive)	14.8 µM (inactive)	4.82 µM (inactive)	11.1 µM (inactive)	0.351 µM (active)	3.31 µM (inactive)	11.5 µM (inactive)	5.07 µM (inactive)	18.3 µM (inactive)	21.6 µM (inactive)	13.3 µM (inactive)	7.98 µM (inactive)	9.91 µM (inactive)	12.2 µM (inactive)	0.929 µM (active)
O=C(/C=C/c1ccc(OCc2ccccc2)cc1)NCc1ccc(C(=O)NCCc2ccccc2)cc1	> 100 µM (inactive)	> 100 µM (inactive)		64.1 µM (inactive)	> 100 µM (inactive)	> 100 µM (inactive)	> 100 µM (inactive)	> 100 µM (inactive)	> 100 µM (inactive)	> 100 µM (inactive)	> 100 µM (inactive)	> 100 µM (inactive)	> 100 µM (inactive)	> 100 µM (inactive)	> 100 µM (inactive)	> 100 µM (inactive)	23.3 µM (inactive)	> 100 µM (inactive)		
NC(CSCc1ccc(I)cc1)C(=O)O (stereo not drawn)	> 100 µM (inactive)	> 100 µM (inactive)	> 100 µM (inactive)	> 100 µM (inactive)	> 100 µM (inactive)	> 100 µM (inactive)	> 100 µM (inactive)	> 100 µM (inactive)	> 100 µM (inactive)	> 100 µM (inactive)	> 100 µM (inactive)	> 100 µM (inactive)	> 100 µM (inactive)	> 100 µM (inactive)	> 100 µM (inactive)	> 100 µM (inactive)	> 100 µM (inactive)	> 100 µM (inactive)	> 100 µM (inactive)	
COc1ccc2c(c1)N(C(C)=O)CN1C(=O)CCC21 (stereo not drawn)	> 100 µM (inactive)	> 100 µM (inactive)	79.6 µM (inactive)	> 100 µM (inactive)	> 100 µM (inactive)	> 100 µM (inactive)	> 100 µM (inactive)	> 100 µM (inactive)	> 100 µM (inactive)	> 100 µM (inactive)	> 100 µM (inactive)	> 100 µM (inactive)	> 100 µM (inactive)	> 100 µM (inactive)	> 100 µM (inactive)	> 100 µM (inactive)	> 100 µM (inactive)	> 100 µM (inactive)	49.3 µM (inactive)	
O=C(Nc1ccc(N2C(=O)CSC2c2cccs2)cc1)c1ccc(N2C(=O)CSC2c2cccs2)cc1 (stereo not drawn)	> 100 µM (inactive)	> 100 µM (inactive)	56.2 µM (inactive)	> 100 µM (inactive)	> 100 µM (inactive)	86.5 µM (inactive)	> 100 µM (inactive)	> 100 µM (inactive)	> 100 µM (inactive)	> 100 µM (inactive)	> 100 µM (inactive)	> 100 µM (inactive)	> 100 µM (inactive)	> 100 µM (inactive)	> 100 µM (inactive)	53 µM (inactive)	> 100 µM (inactive)	> 100 µM (inactive)		
N=C(N)N/N=C/c1c(-c2ccc(Cl)c(Cl)c2Cl)nc2sccn12	1.71 µM (inactive)	2.1 µM (inactive)			1.7 µM (inactive)	1.2 µM (inactive)	1.69 µM (inactive)	1.64 µM (inactive)	1.5 µM (inactive)	1.46 µM (inactive)	1.82 µM (inactive)	2.72 µM (inactive)		1.44 µM (inactive)		1.79 µM (inactive)	1.5 µM (inactive)	1.49 µM (inactive)		
OCC1OC(n2nc(-c3ccccc3)nc2-c2cnccn2)C(O)C1O (stereo not drawn)	> 100 µM (inactive)	> 100 µM (inactive)	> 100 µM (inactive)		> 100 µM (inactive)	> 100 µM (inactive)	> 100 µM (inactive)	> 100 µM (inactive)	> 100 µM (inactive)	> 100 µM (inactive)		> 100 µM (inactive)	> 100 µM (inactive)	> 100 µM (inactive)	> 100 µM (inactive)	> 100 µM (inactive)	> 100 µM (inactive)	> 100 µM (inactive)		
CCCCCCCCCCCCCCCC(=O)ON1C(=S)NC(C)(c2ccccc2)C1=S (stereo not drawn)	> 100 µM (inactive)	> 100 µM (inactive)	38.2 µM (inactive)	> 100 µM (inactive)	> 100 µM (inactive)			55.2 µM (inactive)	> 100 µM (inactive)	> 100 µM (inactive)	> 100 µM (inactive)	62.2 µM (inactive)	38.5 µM (inactive)	> 100 µM (inactive)	> 100 µM (inactive)	2.11 µM (inactive)	> 100 µM (inactive)	> 100 µM (inactive)	> 100 µM (inactive)	
CC(C)N(/C(F)=N\C(=O)Nc1ccccc1C(F)(F)F)C(C)C	58.1 µM (inactive)		35.8 µM (inactive)			43.4 µM (inactive)	44.7 µM (inactive)	40.2 µM (inactive)	37.2 µM (inactive)	45 µM (inactive)	37.4 µM (inactive)	33.3 µM (inactive)	31.3 µM (inactive)	22.5 µM (inactive)	41.5 µM (inactive)	45.6 µM (inactive)	31.8 µM (inactive)	> 100 µM (inactive)	24.4 µM (inactive)	28.5 µM (inactive)
CN1C(=O)C2CCC(=O)N2c2cccnc21 (stereo not drawn)	> 100 µM (inactive)	> 100 µM (inactive)	> 100 µM (inactive)		> 100 µM (inactive)	> 100 µM (inactive)	> 100 µM (inactive)	> 100 µM (inactive)	> 100 µM (inactive)	> 100 µM (inactive)	> 100 µM (inactive)		> 100 µM (inactive)		> 100 µM (inactive)	> 100 µM (inactive)	> 100 µM (inactive)		> 100 µM (inactive)	> 100 µM (inactive)
O=C(CC(C(=O)c1ccsc1)c1cccs1)c1ccccc1 (stereo not drawn)	89.1 µM (inactive)	18.3 µM (inactive)	> 100 µM (inactive)	14 µM (inactive)	54.6 µM (inactive)	98.9 µM (inactive)	> 100 µM (inactive)	82.8 µM (inactive)	> 100 µM (inactive)	19.2 µM (inactive)	> 100 µM (inactive)		> 100 µM (inactive)	> 100 µM (inactive)		98.9 µM (inactive)	> 100 µM (inactive)	23.7 µM (inactive)	> 100 µM (inactive)	76.9 µM (inactive)
COC(=O)CCC(=O)c1ccc2c(c1)CC1(C2)Cc2ccc(C(=O)CCC(=O)OC)cc2C1	73.6 µM (inactive)	32.7 µM (inactive)	29.9 µM (inactive)	> 100 µM (inactive)		36.4 µM (inactive)		> 100 µM (inactive)	> 100 µM (inactive)	30.5 µM (inactive)		39.8 µM (inactive)	> 100 µM (inactive)	> 100 µM (inactive)	37.4 µM (inactive)	53.8 µM (inactive)	> 100 µM (inactive)	< 0.01 µM (active)	35.2 µM (inactive)	17 µM (inactive)
COc1ccc(NC(=O)C2=C(SC)C(C#N)C(=O)N=C2N)cc1 (stereo not drawn)		> 100 µM (inactive)	54.3 µM (inactive)	> 100 µM (inactive)	> 100 µM (inactive)	> 100 µM (inactive)	67.1 µM (inactive)	> 100 µM (inactive)	> 100 µM (inactive)	72.1 µM (inactive)	46.3 µM (inactive)	> 100 µM (inactive)	> 100 µM (inactive)	14 µM (inactive)		> 100 µM (inactive)	> 100 µM (inactive)		> 100 µM (inactive)	> 100 µM (inactive)
CC1C(NNc2ccccc2)Oc2cc3c(cc2C1c1ccccc1O)OCO3 (stereo not drawn)	10 µM (inactive)		0.444 µM (active)	15.7 µM (inactive)	3.89 µM (inactive)	10.1 µM (inactive)	13.7 µM (inactive)	6.03 µM (inactive)	5.79 µM (inactive)	1.59 µM (inactive)	0.962 µM (active)	3.2 µM (inactive)	4.56 µM (inactive)	13.5 µM (inactive)		0.632 µM (active)	10.9 µM (inactive)	10.1 µM (inactive)	4.07 µM (inactive)	0.284 µM (active)
